Measurements: US8415342B2, “Besifloxacin ophthalmic composition for the treatment or control of infection” (Bausch & Lomb Incorporated, priority 2008, dated 2013)
Values after ≈ are worked out from the molar mass of the structure shown. Read-outs that look alike come from different tables or passages of the source.

Tests used:
Format in all cases: cell-based
Streptococcus agalactiae = assay: MIC, CLSI broth microdilution, clinical isolates; details: Streptococcus agalactiae (N = 100)
Legionella pneumophila = assay: microbe, parasite or virus in culture
Haemophilus influenzae = assay: MIC, CLSI broth microdilution, clinical isolates; details: for MIC50 / MIC90: Haemophilus influenzae
Morganella morganii = assay: MIC, CLSI broth microdilution, clinical isolates; details: Morganella morganii (N = 51)
[1] = test system: Staphylococcus lugdunensis; assay: MIC, CLSI broth microdilution, clinical isolates; details: Staphylococcus lugdunensis (N = 15)
[2] = test system: Staphylococcus haemolyticus; assay: MIC, CLSI broth microdilution, clinical isolates; details: Staphylococcus haemolyticus (N = 101)
S. aureus = assay: MIC of clinical trial isolates, Studies 373, 433, 434; details: Staphylococcus aureus
Staphylococcus warneri = assay: MIC, CLSI broth microdilution, clinical isolates; details: Staphylococcus warneri (N = 50)
Staphylococcus hominis = assay: MIC, CLSI broth microdilution, clinical isolates; details: Staphylococcus hominis (N = 50)
[3] = test system: Staphylococcus saprophyticus; assay: MIC, CLSI broth microdilution, clinical isolates; details: Staphylococcus saprophyticus (N = 101)
Moraxella catarrhalis = assay: MIC, CLSI broth microdilution, clinical isolates; details: Moraxella catarrhalis (N = 101)
[4] = test system: Lancefield group C, F, G streptococci; assay: MIC, CLSI broth microdilution, clinical isolates; details: G streptococci (N = 50)
Streptococcus pyogenes = assay: MIC, CLSI broth microdilution, clinical isolates; details: Streptococcus pyogenes (N = 101)
S. pneumoniae = assay: MIC and MBC:MIC ratio, recent ocular isolates; details: S. pneumoniae (N = 35)
Viridans streptococci = assay: MIC, CLSI broth microdilution, clinical isolates; details: Viridans streptococci (N = 156)
Citrobacter koseri = assay: MIC, CLSI broth microdilution, clinical isolates; details: Citrobacter koseri (N = 100)
Staphylococcus aureus = assay: MIC, CLSI broth microdilution, clinical isolates; details: for MIC50 / MIC90: Staphylococcus aureus
Streptococcus pneumoniae = assay: MIC, CLSI broth microdilution, clinical isolates
S. epidermidis = assay: MIC of clinical trial isolates, Studies 373, 433, 434; details: Staphylococcus epidermidis
[5] = test system: Staphylococcus epidermidis; assay: MIC, CLSI broth microdilution, clinical isolates; details: for MIC50: Staphylococcus epidermidis
Klebsiella oxytoca = assay: MIC, CLSI broth microdilution, clinical isolates; details: Klebsiella oxytoca (N = 50)
[6] = Haemophilus influenzae (all phenotypes, N = 40)
[7] = Haemophilus influenzae (bla negative, N = 24)
[8] = Haemophilus influenzae (bla positive, N = 16)
[9] = Streptococcus pneumoniae, recent ocular isolates
[10] = Staphylococcus aureus (CNS, N = 16)
[11] = Staphylococcus aureus (CS, N = 14)
[12] = Staphylococcus aureus (all phenotypes, N = 30)
[13] = MRSA, Staphylococcus aureus (MRSA, N = 11)
[14] = MSSA, Staphylococcus aureus (MSSA, N = 19)
[15] = Streptococcus pneumoniae (PSSP, N = 31)
[16] = Staphylococcus epidermidis (CNS, N = 6)
[17] = Staphylococcus epidermidis (CS, N = 9)
[18] = Staphylococcus epidermidis (MSSE, N = 6)
[19] = Staphylococcus epidermidis (all phenotypes, N = 15)

N[C@@H]1CCCCN(c2c(F)cc3c(=O)c(C(=O)O)cn(C4CC4)c3c2Cl)C1 [Besifloxacin, (R)-(+)-(3-amino-2,3,4,5,6,7-hexahydro-1H-azepin-1-yl)-8-chloro-1-cyclopropyl-6-fluoro-1,4,-dihydro-4-oxo-3-quinolinecarboxylic acid]
MIC Range (Streptococcus agalactiae): 0.03 to 0.12 µg/mL | MIC50 (Streptococcus agalactiae; read-out: MIC50): 0.06 µg/mL (≈ 0.152 µM) | MIC90 (Streptococcus agalactiae; read-out: MIC90): 0.06 µg/mL (≈ 0.152 µM) | MIC50 (Legionella pneumophila; Legionella pneumophila): 0.03 µg/mL (≈ 0.0762 µM) | MIC90 (Legionella pneumophila; Legionella pneumophila): 0.03 µg/mL (≈ 0.0762 µM) | MIC Range (Legionella pneumophila; Legionella pneumophila (N = 50)): 0.015 to 0.06 µg/mL | MIC Range (Haemophilus influenzae; [6]): ≦0.004-0.03 μg/mL | MIC Range (Haemophilus influenzae; [7]): ≦0.004-0.03 μg/mL | MIC Range (Haemophilus influenzae; [8]): 8 to 30 ng/mL | MIC50 (Haemophilus influenzae; [6]): 0.015 µg/mL (≈ 0.0381 µM) | MIC90 (Haemophilus influenzae; [6]): 0.015 µg/mL (≈ 0.0381 µM) | MIC50 (Haemophilus influenzae; [7]): 0.015 µg/mL (≈ 0.0381 µM) | MIC90 (Haemophilus influenzae; [7]): 0.015 µg/mL (≈ 0.0381 µM) | MIC50 (Haemophilus influenzae; [8]): 0.015 µg/mL (≈ 0.0381 µM) | MIC90 (Haemophilus influenzae; [8]): 0.03 µg/mL (≈ 0.0762 µM) | MIC50 (Morganella morganii): 0.12 µg/mL (≈ 0.305 µM) | MIC90 (Morganella morganii): 4 µg/mL (≈ 10.2 µM) | MIC50 [1]: 0.06 µg/mL (≈ 0.152 µM) | MIC90 [1]: 0.5 µg/mL (≈ 1.27 µM) | MIC Range [1]: 0.015 to 2 µg/mL | MIC50 [2]: 0.5 µg/mL (≈ 1.27 µM) | MIC90 [2]: 1 µg/mL (≈ 2.54 µM) | MIC Range [2]: 0.015 to 4 µg/mL | MIC90 (S. aureus; MRSA, S. aureus MRSA-CR, N 17, read-out: MIC90): 4 µg/mL | MIC90 (S. aureus; MRSA, S. aureus MRSA-CS, N 9, read-out: MIC90 (due to limited isolates, highest MIC value is given)): 0.06 µg/mL | MIC90 (S. aureus; MRSA, Staphylococcus aureus (MRSA-CR), isolates of studies 373, 433, 434, read-out: MIC90): 4 µg/mL | MIC90 (S. aureus; MSSA, S. aureus MSSA-CR, N 17, read-out: MIC90): 2 µg/mL | MIC90 (S. aureus; MSSA, S. aureus MSSA-CS, N 144, read-out: MIC90): 0.06 µg/mL | MIC90 (S. aureus; MSSA, Staphylococcus aureus (MSSA-CR), isolates of studies 373, 433, 434, read-out: MIC90): 2 µg/mL | MIC90 (S. aureus; Staphylococcus aureus (all phenotypes), isolates of studies 373, 433, 434, read-out: MIC90): 0.5 µg/mL | MIC50 (Staphylococcus warneri): 0.06 µg/mL (≈ 0.152 µM) | MIC90 (Staphylococcus warneri): 1 µg/mL (≈ 2.54 µM) | MIC Range (Staphylococcus warneri): 0.015 to 2 µg/mL | MIC50 (Staphylococcus hominis): 0.25 µg/mL (≈ 0.635 µM) | MIC90 (Staphylococcus hominis): 1 µg/mL (≈ 2.54 µM) | MIC Range (Staphylococcus hominis): 0.015 to 2 µg/mL | MIC50 [3]: 0.06 µg/mL (≈ 0.152 µM) | MIC90 [3]: 0.12 µg/mL (≈ 0.305 µM) | MIC Range [3]: 0.015 to 0.25 µg/mL | MIC50 (Moraxella catarrhalis): 0.03 µg/mL (≈ 0.0762 µM) | MIC90 (Moraxella catarrhalis): 0.03 µg/mL (≈ 0.0762 µM) | MIC Range (Moraxella catarrhalis): 0.015 to 0.12 µg/mL | MIC Range [4]: 0.015 to 0.25 µg/mL | MIC50 ([4]; read-out: MIC50): 0.03 µg/mL (≈ 0.0762 µM) | MIC90 ([4]; read-out: MIC90): 0.06 µg/mL (≈ 0.152 µM) | MIC Range (Streptococcus pyogenes): 0.03 to 0.06 µg/mL | MIC50 (Streptococcus pyogenes; read-out: MIC50): 0.03 µg/mL (≈ 0.0762 µM) | MIC90 (Streptococcus pyogenes; read-out: MIC90): 0.06 µg/mL (≈ 0.152 µM) | % of isolates with MBC:MIC ratio 1 (S. pneumoniae): 60.0% | % of isolates with MBC:MIC ratio 2 (S. pneumoniae): 37.1% | % of isolates with MBC:MIC ratio 4 (S. pneumoniae): 2.9% | % of isolates with MBC:MIC ratio 8 (S. pneumoniae): 0.0% | % of isolates with MBC:MIC ratio ≧16 (S. pneumoniae): 0.0% | MIC Range (S. pneumoniae; recent ocular isolates): 0.015 to 0.5 µg/mL | MIC50 (S. pneumoniae; [9]): 0.06 µg/mL | MIC90 (S. pneumoniae; [9]): 0.06 µg/mL | MIC Range (Viridans streptococci): 0.015 to 2 µg/mL | MIC50 (Viridans streptococci; read-out: MIC50): 0.06 µg/mL (≈ 0.152 µM) | MIC90 (Viridans streptococci; read-out: MIC90): 0.12 µg/mL (≈ 0.305 µM) | MIC50 (Citrobacter koseri): 0.06 µg/mL (≈ 0.152 µM) | MIC90 (Citrobacter koseri): 0.25 µg/mL (≈ 0.635 µM) | MIC Range (Staphylococcus aureus; [10]): 0.03 to 4 µg/mL | MIC Range (Staphylococcus aureus; [11]): 0.015 to 0.25 µg/mL | MIC Range (Staphylococcus aureus; Staphylococcus aureus (MRSA, N = 11)): 0.015 to 4 µg/mL | MIC Range (Staphylococcus aureus; Staphylococcus aureus (MSSA, N = 19)): 0.015 to 4 µg/mL | MIC Range (Staphylococcus aureus; [12]): 0.015 to 4 µg/mL | MIC50 (Staphylococcus aureus; [13]): 0.5 µg/mL (≈ 1.27 µM) | MIC90 (Staphylococcus aureus; [13]): 4 µg/mL (≈ 10.2 µM) | MIC50 (Staphylococcus aureus; [14]): 0.015 µg/mL (≈ 0.0381 µM) | MIC90 (Staphylococcus aureus; [14]): 0.25 µg/mL (≈ 0.635 µM) | MIC50 (Staphylococcus aureus; [10]): 0.25 µg/mL (≈ 0.635 µM) | MIC90 (Staphylococcus aureus; [10]): 4 µg/mL (≈ 10.2 µM) | MIC50 (Staphylococcus aureus; [11]): 0.015 µg/mL (≈ 0.0381 µM) | MIC90 (Staphylococcus aureus; [11]): 0.12 µg/mL (≈ 0.305 µM) | MIC50 (Staphylococcus aureus; [12]): 0.12 µg/mL (≈ 0.305 µM) | MIC90 (Staphylococcus aureus; [12]): 4 µg/mL (≈ 10.2 µM) | MIC Range (Streptococcus pneumoniae; Streptococcus pneumoniae (PISP, N = 2)): 0.06 to 0.12 µg/mL | MIC Range (Streptococcus pneumoniae; Streptococcus pneumoniae (PRSP, N = 2)): 0.03 to 0.06 µg/mL | MIC50 (Streptococcus pneumoniae; [15]): 0.06 µg/mL (≈ 0.152 µM) | MIC90 (Streptococcus pneumoniae; [15]): 0.06 µg/mL (≈ 0.152 µM) | MIC Range (Streptococcus pneumoniae; [15]): 0.015 to 0.5 µg/mL | MIC Range (Streptococcus pneumoniae; Streptococcus pneumoniae (all phenotypes, N = 35)): 0.015 to 0.5 µg/mL | MIC50 (Streptococcus pneumoniae; Streptococcus pneumoniae (all phenotypes, N = 35), read-out: MIC50): 0.06 µg/mL (≈ 0.152 µM) | MIC90 (Streptococcus pneumoniae; Streptococcus pneumoniae (all phenotypes, N = 35), read-out: MIC90): 0.06 µg/mL (≈ 0.152 µM) | MIC90 (S. epidermidis; MRSE, S. epidermidis MRSE-CR, N 24, read-out: MIC90): 4 µg/mL | MIC90 (S. epidermidis; MRSE, S. epidermidis MRSE-CS, N 27, read-out: MIC90): 0.06 µg/mL | MIC90 (S. epidermidis; S. epidermidis MSSE-CR, N 10, read-out: MIC90): 1 µg/mL | MIC90 (S. epidermidis; S. epidermidis MSSE-CS, N 50, read-out: MIC90): 0.06 µg/mL | MIC90 (S. epidermidis; isolates of studies 373, 433, 434, read-out: MIC90): 0.5 µg/mL | MIC Range [5, 16]: 0.25 to 4 µg/mL | MIC Range [5, 17]: 0.015 to 0.03 µg/mL | MIC Range ([5]; Staphylococcus epidermidis (MRSE, N = 9)): 0.015 to 4 µg/mL | MIC Range [5, 18]: 0.015 to 0.25 µg/mL | MIC90 [5, 19]: 4 µg/mL (≈ 10.2 µM) | MIC Range [5, 19]: 0.015 to 4 µg/mL | MIC50 ([5]; MRSE, Staphylococcus epidermidis (MRSE, N = 9)): 0.25 µg/mL (≈ 0.635 µM) | MIC50 [5, 16]: 0.25 µg/mL (≈ 0.635 µM) | MIC50 [5, 17]: 0.03 µg/mL (≈ 0.0762 µM) | MIC50 [5, 18]: 0.03 µg/mL (≈ 0.0762 µM) | MIC50 [5, 19]: 0.03 µg/mL (≈ 0.0762 µM) | MIC50 (Klebsiella oxytoca): 0.12 µg/mL (≈ 0.305 µM) | MIC90 (Klebsiella oxytoca): 1 µg/mL (≈ 2.54 µM) | MIC Range (Klebsiella oxytoca): 0.06 to 8 µg/mL
